Results on six compounds are retold here after patent US20070249706A1, “USE OF CERTAIN BIPHENYL COMPOUNDS FOR PROTECTION OF NEURONS AND OLIGODENDROCYTES IN THE TREATMENT OF MULTIPLE SCLEROSIS (MS)” (AVENTIS PHARMACEUTICALS INC., priority 2004, published 2007).

One experiment has as its target T1, ERα (Homo sapiens, UniProt P03372).
T1 construct: purchased Panvera P2698
T1 sequence (P03372 1-595): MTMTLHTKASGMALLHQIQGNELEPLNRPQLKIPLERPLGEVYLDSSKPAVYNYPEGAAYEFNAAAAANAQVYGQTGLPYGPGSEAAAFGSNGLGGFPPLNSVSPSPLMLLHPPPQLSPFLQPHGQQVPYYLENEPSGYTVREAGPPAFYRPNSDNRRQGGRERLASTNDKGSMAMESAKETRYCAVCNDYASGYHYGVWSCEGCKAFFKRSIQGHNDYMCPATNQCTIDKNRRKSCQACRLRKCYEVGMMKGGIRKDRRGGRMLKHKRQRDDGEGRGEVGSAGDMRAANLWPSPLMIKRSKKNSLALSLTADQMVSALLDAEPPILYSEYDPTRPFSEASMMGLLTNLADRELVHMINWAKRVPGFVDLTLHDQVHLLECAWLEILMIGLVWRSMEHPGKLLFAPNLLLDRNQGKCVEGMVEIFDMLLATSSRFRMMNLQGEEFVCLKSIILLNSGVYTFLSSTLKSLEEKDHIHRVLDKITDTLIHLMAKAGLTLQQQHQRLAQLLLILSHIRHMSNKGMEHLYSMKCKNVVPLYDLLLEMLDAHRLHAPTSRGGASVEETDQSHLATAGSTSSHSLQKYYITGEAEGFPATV
The experiment is described as follows: Fluorescence Polarization Competition Assay, ERα binding (Panvera kit). The note with it: first ER column. How it is done: (§1) A number of compounds were tested for ERα and ERβ binding using Panvera's Fluorescence Polarization Competition Assay Kits (cat. nos. P2698 and P2700). Briefly, ERα or ERβ were thawed on ice from −80° C. An estrogen receptor and fluorescent ligand (Fluormone™) complex was formed at a 15/1 molar ratio for ERα and at a 10/1 molar ratio for ER≈ (2X complex). Serial dilutions of the test compounds were made in assay buffer and the assay was initiated by adding 50 ul of the 2X receptor-ligand complex to 50 ul of compound solution in black 96-well plates. Zero percent competition (theoretical maximum polarization) was measured in wells containing 50 ul of buffer and 50 ul of the 2X receptor-ligand complex. The plates were incubated after gentle shaking in the dark at room temperature. Polarization values (mP) were read no longer than 7 hours after the reaction was started with a FARCyte Fluorescent reader (Amersham) at excitation and emission wavelengths of 485 nm and 535 nm, respectively. Data was analyzed using non-linear regression and IC50 values determined using GraphPad Prism. Estradiol was used as the reference compound.

The target in a further experiment is T2, ERβ (Homo sapiens, UniProt Q92731).
T2 construct: purchased Panvera P2700
Kind of experiment: Fluorescence Polarization Competition Assay, ERβ binding (Panvera kit). The note with it: for IC50: ER, fluorescence polarization competition; for ER[…] selectivity Fold Diff: ratio of the two ER binding IC50 values. How it is done:
as §1

Experiment [1] has as its system primary rat oligodendrocyte progenitor cells. The experiment is described as follows: Oligodendrocyte toxicity assay, protection of oligodendrocyte progenitors (OLP) against SIN-1, LDH release. The experiment is classed as cell-based. The note with it: 10 nM compound, 1 hour pretreatment, SIN-1 toxin, LDH after 24 hours. How it is done: (§2) Oligodendrocyte Toxicity Assay
(§3) Primary rat oligodendrocyte progenitor cells were obtained from the cerebra of 2-3 day old postnatal rats (Sprague Dawley). The meninges were removed and tissue was mechanically dissociated. Cells were plated on T75 flasks and fed with DMEM +10% FBS.
(§4) Enriched OLPs were collected by mechanical separation from the astrocytic monolayer and were expanded in serum free media (SFM) supplemented with the mitogens, PDGF-AA (10 ng/mI) and FGF-2 (10 ng/mI).
(§5) Cells were plated in 96-well plates, 10,000 per well. Medium was changed to fresh medium and cells were pretreated with compounds for 1 hour. Toxins were added to give the following final concentrations: Sin-10 mM, Camptothecin 1 OM
(§6) After 24 hours, medium was removed and assayed for LDH activity using the Promega cytotox 96 kit (catalog# G1780). Results were calculated as percent protection against toxin-induced toxicity.
(§7) These compounds have been assessed for their efficacy in protection against cell death produced by toxic agents such as SIN-1 (3-morpholino-sydnonimine, producing peroxynitrite) and camptothecin. The target cells assessed in vitro are primary cultures of rodent oligodendrocyte progenitors and their mature counterparts.

The test system of the next experiment is mature oligodendrocytes. Kind of experiment: Oligodendrocyte toxicity assay, protection of mature oligodendrocytes (OL) against SIN-1, LDH release. The format is cell-based, rat. The note with it: 10 nM compound, 1 hour pretreatment, SIN-1 toxin, LDH after 24 hours. As for the experimental part: as §2, §3, §4
To generate mature oligodendrocytes, progenitor cells were switched to SFM supplemented with IGF-1 (10 ng/mi) 24 hours after plating and cells were grown under these conditions for 7 days prior to experimental assays.
as §5, §6, §7

T2 sequence (Q92731 whole entry): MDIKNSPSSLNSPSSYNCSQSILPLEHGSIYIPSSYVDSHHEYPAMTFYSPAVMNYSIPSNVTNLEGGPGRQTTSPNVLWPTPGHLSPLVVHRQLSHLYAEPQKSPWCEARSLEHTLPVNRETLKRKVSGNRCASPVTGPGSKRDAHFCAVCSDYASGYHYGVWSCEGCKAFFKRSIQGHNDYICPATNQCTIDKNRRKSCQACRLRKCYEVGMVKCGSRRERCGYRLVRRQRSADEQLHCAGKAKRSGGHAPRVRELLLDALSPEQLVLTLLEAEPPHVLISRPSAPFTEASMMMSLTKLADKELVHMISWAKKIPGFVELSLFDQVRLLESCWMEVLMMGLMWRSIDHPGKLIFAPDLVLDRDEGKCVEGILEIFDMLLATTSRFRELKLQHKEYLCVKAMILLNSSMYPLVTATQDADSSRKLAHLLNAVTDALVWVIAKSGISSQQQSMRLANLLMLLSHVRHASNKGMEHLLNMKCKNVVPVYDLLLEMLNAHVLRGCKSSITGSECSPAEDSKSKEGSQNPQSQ

Regarding `OCc1cc(Br)c(-c2ccc(O)cc2)c(Br)c1` [2,6-dibromo-4′-hydroxy-[1,1′-biphenyl]-4-methanol], the IC50 on ERα was found to be 60 nM. Further, on ERβ, the IC50 was determined as 9 nM and the “ER[…] selectivity Fold Diff” value is 7 Fold. Also, the “% Protection (SIN-1*) OLP 10 nM” value in experiment [1] was 51%. For the same compound, the “% Protection (SIN-1*) OL 10 nM” value in the experiment with mature oligodendrocytes is on record as 11%.

For `OCc1cc(Cl)c(-c2ccc(O)cc2)c(Cl)c1` [2,6-dichloro-4′-hydroxy-[1,1′-biphenyl]-4-methanol], the IC50 at ERα is 93 nM. In addition, at ERβ, the IC50 is 18 nM and the “ER[…] selectivity Fold Diff” value was 5 Fold. In addition, the “% Protection (SIN-1*) OLP 10 nM” value in experiment [1] is listed as 36%. The “% Protection (SIN-1*) OL 10 nM” value in the experiment on mature oligodendrocytes came to 6%.

`OCc1cc(Br)c(-c2ccc(O)cc2)c(-n2cccc2)c1` [2-bromo-4′-hydroxy-6-(1H-pyrrol-1-yl)-1,1′-biphenyl]-4-methanol]: the IC50 at ERα was found to be 408 nM. Moreover, at ERβ, the concentration for half-maximal inhibition (IC50) stood at 15 nM and the “ER[…] selectivity Fold Diff” value amounted to 27 Fold. Further, the “% Protection (SIN-1*) OLP 10 nM” value in experiment [1] was found to be 10%. The “% Protection (SIN-1*) OL 10 nM” value in the experiment with mature oligodendrocytes is on record as 15%.

On to `O=[N+]([O-])c1cc(CO)cc(Br)c1-c1ccc(O)cc1` [2-bromo-4′-hydroxy-6-nitro-[1,1′-biphenyl]-4-methanol], for which the IC50 at ERα is 125 nM. Also, on ERβ, the IC50 is 8 nM and the “ER[…] selectivity Fold Diff” value came to 16 Fold. Also, in experiment [1], the “% Protection (SIN-1*) OLP 10 nM” value was determined as 16%. Also, the “% Protection (SIN-1*) OL 10 nM” value with mature oligodendrocytes came out at 12%.

The compound `OCc1cc(Br)c(-c2ccc(O)cc2)c(-c2ccoc2)c1` [2-bromo-6-(furan-3-yl)-4′-hydroxy-[1,1′-biphenyl]-4-methanol] displayed a 50% inhibitory concentration (IC50) on ERα of 157 nM. Also, on ERβ, the IC50 came to 6 nM and the “ER[…] selectivity Fold Diff” value is given as 25 Fold. Moreover, the “% Protection (SIN-1*) OLP 10 nM” value in experiment [1] was found to be 37%. Also, the “% Protection (SIN-1*) OL 10 nM” value with mature oligodendrocytes was determined as 16%.

For `CN(C)c1cc(CO)cc(Br)c1-c1ccc(O)cc1` [2-bromo-6-dimethylamino-4′-hydroxy-[1,1′-biphenyl]-4-methanol], the IC50 at ERα came to 420 nM. Also, on ERβ, the IC50 was 37 nM and the “ER[…] selectivity Fold Diff” value was 11 Fold. Moreover, in experiment [1], the “% Protection (SIN-1*) OLP 10 nM” value is 45%. Besides, in the experiment on mature oligodendrocytes, the “% Protection (SIN-1*) OL 10 nM” value was determined as 12%.
